Measured values as given in PubChem BioAssay AID248 (DTP/NCI, 2004).
Toxic doses and inconclusive results are not listed.

Test system: L1210 leukemia ip in BDF1 mice, survival T/C
Assay: NCI In Vivo Anticancer Drug Screen. Data for tumor model L1210 Leukemia (intraperitoneal) in B6D2F1 (BDF1) mice
Conditions: endpoint: mean survival time, higher = longer survival
Outline: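 Antitumor effect is assessed in tumor-bearing animals. Survival in the compound arm is compared with a vehicle-dosed control arm and expressed as their quotient.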

[1] = dose: 100.0 mg/kg/injection, schedule: Q04DX003 (ip), vehicle: Klucel (hydroxypropylcellulose) (HPC)
[2] = dose: 200.0 mg/kg/injection, schedule: Q04DX003 (ip), vehicle: Klucel (hydroxypropylcellulose) (HPC)

Q: Nc1cc(=O)[nH][nH]1 was tested. Which T/C (dose: 100.0 mg/kg/injection, schedule: Q01DX009 (ip), vehicle: saline) did it give?
A: 98 % of control

Q: What about the T/C (dose: 100.0 mg/kg/injection, schedule: Q04DX003 (ip), vehicle: saline) of the same compound?
A: 102 % of control

Q: What about the T/C (dose: 200.0 mg/kg/injection, schedule: Q01DX009 (ip), vehicle: saline) of the same compound?
A: 106 % of control

Q: What about the T/C (dose: 200.0 mg/kg/injection, schedule: Q01DX Z (ip), vehicle: carboxymethylcellulose (CMC)) of the same compound?
A: 115 % of control

Q: And the T/C (dose: 200.0 mg/kg/injection, schedule: Q01DX Z (ip), vehicle: saline)?
A: 115 % of control

Q: What about the T/C (dose: 200.0 mg/kg/injection, schedule: Q04DX003 (ip), vehicle: saline) of the same compound?
A: 107 % of control

Q: And the T/C (dose: 300.0 mg/kg/injection, schedule: Q01DX Z (ip), vehicle: carboxymethylcellulose (CMC))?
A: 115 % of control

Q: And the T/C (dose: 300.0 mg/kg/injection, schedule: Q01DX Z (ip), vehicle: saline)?
A: 123 % of control

Q: What about the T/C (dose: 400.0 mg/kg/injection, schedule: Q01DX009 (ip), vehicle: saline) of the same compound?
A: 120 % of control

Q: What about the T/C (dose: 400.0 mg/kg/injection, schedule: Q04DX003 (ip), vehicle: saline) of the same compound?
A: 105 % of control

Q: And the T/C (dose: 450.0 mg/kg/injection, schedule: Q01DX Z (ip), vehicle: carboxymethylcellulose (CMC))?
A: 121 % of control

Q: What about the T/C (dose: 675.0 mg/kg/injection, schedule: Q01DX Z (ip), vehicle: saline) of the same compound?
A: 112 % of control

Q: C=CC(=O)N1CN(C(=O)C=C)CN(C(=O)C=C)C1 was tested. Which T/C (dose: 1.25 mg/kg/injection, schedule: Q01DX009 (ip), vehicle: saline) did it give?
A: 99 % of control

Q: And the T/C (dose: 2.5 mg/kg/injection, schedule: Q01DX009 (ip), vehicle: saline)?
A: 99 % of control

Q: What about the T/C (dose: 5.0 mg/kg/injection, schedule: Q01DX009 (ip), vehicle: saline) of the same compound?
A: 104 % of control

Q: Which T/C (dose: 25.0 mg/kg/injection, schedule: Q04DX002 (ip), vehicle: saline) does the source give for Cc1nc(N)ncc1CCC1OCCO1 here?
A: 91 % of control

Q: And the T/C (dose: 50.0 mg/kg/injection, schedule: Q04DX002 (ip), vehicle: saline)?
A: 100 % of control

Q: What about the T/C (dose: 100.0 mg/kg/injection, schedule: Q04DX002 (ip), vehicle: Klucel (hydroxypropylcellulose) (HPC)) of the same compound?
A: 175 % of control

Q: What about the T/C (dose: 100.0 mg/kg/injection, schedule: Q04DX002 (ip), vehicle: saline) of the same compound?
A: 107 % of control

Q: And the T/C (dose: 200.0 mg/kg/injection, schedule: Q04DX002 (ip), vehicle: saline)?
A: 103 % of control

Q: For C/C(=C\C(C)(C)c1ccccc1)c1ccccc1, which T/C (dose: 50.0 mg/kg/injection, schedule: Q04DX003 (ip), vehicle: other) is on record?
A: 92 % of control

Q: What about the T/C (dose: 100.0 mg/kg/injection, schedule: Q04DX003 (ip), vehicle: other) of the same compound?
A: 92 % of control

Q: And the T/C (dose: 200.0 mg/kg/injection, schedule: Q04DX003 (ip), vehicle: other)?
A: 100 % of control

Q: CC(=O)OC1=NC(C)c2c1cc(OC(C)=O)[nH]c2=O (configuration not stated) was tested. Which T/C (dose: 50.0 mg/kg/injection, schedule: Q01DX009 (ip), vehicle: Klucel (hydroxypropylcellulose) (HPC)) did it give?
A: 102 % of control

Q: And the T/C [1]?
A: 108 % of control

Q: What about the T/C [2] of the same compound?
A: 115 % of control

Q: What does the source list for COc1ccccc1NC(=O)OCC#CCOC(=O)Nc1ccccc1OC?
A: T/C [1]: 91 % of control; T/C [2]: 95 % of control; T/C (dose: 400.0 mg/kg/injection, schedule: Q04DX003 (ip), vehicle: Klucel (hydroxypropylcellulose) (HPC)): 91 % of control

Q: How did the T/C (dose: 100.0 mg/kg/injection, schedule: Q01DX001 (ip), vehicle: gum acacia) turn out when O=C(COc1ccccc1)Nc1ccccc1C(=O)O was run?
A: 97 % of control

Q: What about the T/C (dose: 200.0 mg/kg/injection, schedule: Q01DX001 (ip), vehicle: gum acacia) of the same compound?
A: 90 % of control

Q: What about the T/C (dose: 400.0 mg/kg/injection, schedule: Q01DX001 (ip), vehicle: gum acacia) of the same compound?
A: 90 % of control
